According to patent EP3408309B1 (priority 2016, dated 2017):

Tests used:
[1] = target: Influenza neuraminidase; settings: competitive inhibitors, background statement; cited from earlier work
[2] = test system: X31; test: Infection inhibition experiment with X31 in BALB/c mice; format: in vivo; settings: X31 pretreated with inhibitor, intranasal application; loss in body weight over 11 days
Experimental: Figure 7A and 7B show the results of an infection inhibition experiment with X31 in BALB/c mice. X31 was pretreated with inhibitor at the indicated concentrations, followed by intranasal application of the mixture to sedated mice.
In the experiments, the results of which are depicted in Figure 7A, the infection-related loss in body weight was daily controlled for 11 days. IPGSA 3 at 5 mM and 1 mM sialic acid concentrations was compared to infected/untreated, uninfected/untreated or infected/control treated (linPGOH 1) cases. The effect of a cytokine storm related loss in body weight was controled by using UV inactivated X31, which was not infectious, but still able to hemagglutinate as the untreated virus. Error bars indicate the standard error of the mean (n≥5).
Error bars indicate the standard error of the mean (n≥5).

[3] = test system: influenza A virus (X-31, H3N2); test: Hemagglutination inhibition (HAI) assay; format: cell-based
[4] = test system: fluorescently labeled X31; test: Microscale thermophoresis binding to whole virus particles; design: species or system influenza strain A/Aichi/2/68 H3N2; settings: apparent dissociation constant, one site binding fit; read-out: Kdapp Particle
Description: The examined IPGSAs show one binding step. Binding constants are described as apparent dissociation constants (Kdapp) derived from a one site binding fit of each binding step. Error bars indicate the standard error of the mean (n≥3).

CC(=O)N[C@H]1[C@H]([C@H](O)[C@H](O)CO)OC(C(=O)O)=C[C@@H]1N=C(N)N [Relenza, Zanamivir]
IC50 values, enzyme inhibition [1]: low

CCOC(=O)C1=C[C@@H](OC(CC)CC)[C@H](NC(C)=O)[C@@H](N)C1 [Tamiflu, Oseltamivir]
infection inhibition in vivo [2]: not able to cause potent infection inhibition | IC50 values, enzyme inhibition [1]: low

CC(=O)N[C@H]1[C@H]([C@H](O)[C@H](O)CO)O[C@@](OC[C@H]2O[C@@H](O[C@H]3[C@H](O)[C@@H](O)C(O)O[C@@H]3CO)[C@H](O)[C@@H](O)[C@H]2O)(C(=O)O)C[C@@H]1O (stereo partly drawn) [α-2,6-sialyllactose]
Enhancement factor (β) ([3]; inhibition potency compared to monomeric α-2,6-sialyllactose): 1 | Ki ([3]; sialic acid concentration, 4 HAU X31, lowest concentration for 100% inhibition, * = maximum tested concentration, read-out: Ki(HAI) SA): 48.1 ± 1.41 mM | Kd [4]: 2.5 mM
